Assay results as given in ChEMBL document CHEMBL3045196, “Relationships between Insecticidal Activity of 6-Alkylthio-2-pyridyl Methanesulfonates and Acetylcholinesterase Inhibition of their Sulfone Derivatives against Nephotettix cincticeps” (J Pestic Sci, 1990).

Biological target: Ace-orthologous acetylcholinesterase (Nephotettix cincticeps) (UniProt Q9NJH6)
Test: Inhibition of susceptible Nephotettix cincticeps Ageo (green rice leafhopper) acetylcholinesterase activity

Ace-orthologous acetylcholinesterase (Nephotettix cincticeps), sequence (Q9NJH6 20-677 limits assumed): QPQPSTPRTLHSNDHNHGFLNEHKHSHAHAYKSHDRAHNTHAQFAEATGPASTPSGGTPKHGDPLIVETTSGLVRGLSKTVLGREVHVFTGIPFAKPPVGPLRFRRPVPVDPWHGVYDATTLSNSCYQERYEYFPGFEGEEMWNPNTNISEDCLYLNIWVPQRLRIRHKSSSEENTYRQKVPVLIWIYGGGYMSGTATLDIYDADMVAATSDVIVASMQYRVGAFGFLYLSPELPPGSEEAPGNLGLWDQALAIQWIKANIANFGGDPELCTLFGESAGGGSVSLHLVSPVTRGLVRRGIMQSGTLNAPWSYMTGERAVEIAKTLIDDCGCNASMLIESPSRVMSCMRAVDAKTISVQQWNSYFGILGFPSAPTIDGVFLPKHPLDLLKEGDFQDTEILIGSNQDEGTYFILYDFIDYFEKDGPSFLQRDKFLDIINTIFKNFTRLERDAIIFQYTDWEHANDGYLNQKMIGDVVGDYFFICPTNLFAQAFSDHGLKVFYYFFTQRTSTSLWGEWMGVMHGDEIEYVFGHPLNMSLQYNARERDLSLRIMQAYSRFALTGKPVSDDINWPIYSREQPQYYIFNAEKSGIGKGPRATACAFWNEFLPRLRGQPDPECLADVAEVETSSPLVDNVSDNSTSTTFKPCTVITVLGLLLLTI

| SMILES | log(1/I50) |
| --- | --- |
| CC(C)CS(=O)(=O)c1cccc(OS(C)(=O)=O)n1 | 9.15 |
| CCCC(C)S(=O)(=O)c1cccc(OS(C)(=O)=O)n1 (stereo not drawn) | 9.3 |
| CCCCS(=O)(=O)c1cccc(OS(C)(=O)=O)n1 | 8.8 |
| CS(=O)(=O)Oc1cccc(S(C)(=O)=O)n1 | 7.17 |
| CCS(=O)(=O)c1cccc(OS(C)(=O)=O)n1 | 8.02 |
| CS(=O)(=O)Oc1cccc(S(=O)(=O)Cc2ccccc2)n1 | 8.82 |
| CS(=O)(=O)Oc1cccc(S(=O)(=O)C2CCCCC2)n1 | 9.02 |
| CC(C)(C)S(=O)(=O)c1cccc(OS(C)(=O)=O)n1 | 7.28 |
| CCCCCS(=O)(=O)c1cccc(OS(C)(=O)=O)n1 | 8.15 |
| CCC(C)S(=O)(=O)c1cccc(OS(C)(=O)=O)n1 (stereo not drawn) | 8.7 |
| CC(C)CCS(=O)(=O)c1cccc(OS(C)(=O)=O)n1 | 7.77 |
| CS(=O)(=O)Oc1cccc(S(=O)(=O)C2CCCC2)n1 | 9.15 |
| CCCS(=O)(=O)c1cccc(OS(C)(=O)=O)n1 | 8.7 |
| CC(C)S(=O)(=O)c1cccc(OS(C)(=O)=O)n1 | 9.52 |
| CS(=O)(=O)Oc1cccc(S(=O)(=O)c2ccccc2)n1 | 8.14 |

Test system: Nephotettix cincticeps
Test: Insecticidal activity against resistant Nephotettix cincticeps Izumi (green rice leafhopper) assessed as mortality by foliar-spray
Format: functional

| SMILES | log(1/LD50) |
| --- | --- |
| CCC(C)Sc1cccc(OS(C)(=O)=O)n1 (stereo not drawn) | 7.68 |
| CCCC(C)Sc1cccc(OS(C)(=O)=O)n1 (stereo not drawn) | 7.41 |
| CS(=O)(=O)Oc1cccc(SCc2ccccc2)n1 | 6.97 |
| CCCSc1cccc(OS(C)(=O)=O)n1 | 7.65 |
| CC(C)(C)CSc1cccc(OS(C)(=O)=O)n1 | 6.69 |
| CC(C)Sc1cccc(OS(C)(=O)=O)n1 | 7.39 |
| CCSc1cccc(OS(C)(=O)=O)n1 | 7.33 |
| CC(C)CSc1cccc(OS(C)(=O)=O)n1 [6-(ISOBUTYLTHIO)PYRIDIN-2-YL METHANESULFONATE] | 7.95 |
| CS(=O)(=O)Oc1cccc(SCC2CC2)n1 | 7.8 |
| CC(C)CCSc1cccc(OS(C)(=O)=O)n1 | 6.44 |
| CS(=O)(=O)Oc1cccc(SC2CCCCC2)n1 | 7.28 |
| CSCCSc1cccc(OS(C)(=O)=O)n1 | 6.54 |
| CC(C)(C)Sc1cccc(OS(C)(=O)=O)n1 | 6.87 |
| CCCCCSc1cccc(OS(C)(=O)=O)n1 | 6.74 |
| CS(=O)(=O)Oc1cccc(SC2CCCC2)n1 | 7.82 |
| CSc1cccc(OS(C)(=O)=O)n1 | 5.74 |
| CCCCSc1cccc(OS(C)(=O)=O)n1 | 7.41 |
| CS(=O)(=O)Oc1cccc(Sc2ccccc2)n1 | 7.3 |

Test system: not listed separately
Test: Methanol-water partition coefficient, log k of the compound
Format: physicochemical

| SMILES | log K |
| --- | --- |
| CC(C)CS(=O)(=O)c1cccc(OS(C)(=O)=O)n1 | 0.274 |
| CCCC(C)S(=O)(=O)c1cccc(OS(C)(=O)=O)n1 (stereo not drawn) | 0.507 |
| CCC(C)Sc1cccc(OS(C)(=O)=O)n1 (stereo not drawn) | 0.37 |
| CCCCS(=O)(=O)c1cccc(OS(C)(=O)=O)n1 | 0.293 |
| CS(=O)(=O)Oc1cccc(S(C)(=O)=O)n1 | -0.602 |
| CCCC(C)Sc1cccc(OS(C)(=O)=O)n1 (stereo not drawn) | 0.59 |
| CS(=O)(=O)Oc1cccc(SCc2ccccc2)n1 | 0.33 |
| CCS(=O)(=O)c1cccc(OS(C)(=O)=O)n1 | -0.358 |
| CCCSc1cccc(OS(C)(=O)=O)n1 | 0.196 |
| CC(C)(C)CSc1cccc(OS(C)(=O)=O)n1 | 0.558 |
| CS(=O)(=O)Oc1cccc(S(=O)(=O)Cc2ccccc2)n1 | 0.35 |
| CS(=O)(=O)Oc1cccc(S(=O)(=O)C2CCCCC2)n1 | 0.565 |
| CC(C)(C)S(=O)(=O)c1cccc(OS(C)(=O)=O)n1 | 0.085 |
| CC(C)Sc1cccc(OS(C)(=O)=O)n1 | 0.163 |
| CCCCCS(=O)(=O)c1cccc(OS(C)(=O)=O)n1 | 0.632 |
| CCSc1cccc(OS(C)(=O)=O)n1 | -0.034 |
| CC(C)CSc1cccc(OS(C)(=O)=O)n1 [6-(ISOBUTYLTHIO)PYRIDIN-2-YL METHANESULFONATE] | 0.399 |

| SMILES | log K |
| --- | --- |
| CS(=O)(=O)Oc1cccc(SCC2CC2)n1 | 0.192 |
| CC(C)CCSc1cccc(OS(C)(=O)=O)n1 | 0.614 |
| CS(=O)(=O)Oc1cccc(SC2CCCCC2)n1 | 0.664 |
| CCC(C)S(=O)(=O)c1cccc(OS(C)(=O)=O)n1 (stereo not drawn) | 0.188 |
| CC(C)CCS(=O)(=O)c1cccc(OS(C)(=O)=O)n1 | 0.576 |
| CS(=O)(=O)Oc1cccc(S(=O)(=O)C2CCCC2)n1 | 0.274 |
| CCCS(=O)(=O)c1cccc(OS(C)(=O)=O)n1 | -0.036 |
| CSCCSc1cccc(OS(C)(=O)=O)n1 | -0.174 |
| CC(C)(C)Sc1cccc(OS(C)(=O)=O)n1 | 0.277 |
| CC(C)S(=O)(=O)c1cccc(OS(C)(=O)=O)n1 | -0.115 |
| CCCCCSc1cccc(OS(C)(=O)=O)n1 | 0.649 |
| CS(=O)(=O)Oc1cccc(SC2CCCC2)n1 | 0.447 |
| CSc1cccc(OS(C)(=O)=O)n1 | 0.259 |
| CS(=O)(=O)Oc1cccc(S(=O)(=O)c2ccccc2)n1 | 0.236 |
| CCCCSc1cccc(OS(C)(=O)=O)n1 | 0.425 |
| CS(=O)(=O)Oc1cccc(Sc2ccccc2)n1 | 0.268 |

Biological target: Ace-orthologous acetylcholinesterase (Nephotettix cincticeps) (UniProt Q9NJH6)
Test: Inhibition of susceptible Nephotettix cincticeps Izumi (green rice leafhopper) acetylcholinesterase activity

| SMILES | log(1/I50) |
| --- | --- |
| CC(C)CS(=O)(=O)c1cccc(OS(C)(=O)=O)n1 | 8.4 |
| CCCC(C)S(=O)(=O)c1cccc(OS(C)(=O)=O)n1 (stereo not drawn) | 9.7 |
| CCCCS(=O)(=O)c1cccc(OS(C)(=O)=O)n1 | 8.22 |
| CCS(=O)(=O)c1cccc(OS(C)(=O)=O)n1 | 7.22 |
| CS(=O)(=O)Oc1cccc(S(=O)(=O)Cc2ccccc2)n1 | 8.09 |
| CS(=O)(=O)Oc1cccc(S(=O)(=O)C2CCCCC2)n1 | 9.1 |
| CC(C)(C)S(=O)(=O)c1cccc(OS(C)(=O)=O)n1 | 7.07 |
| CCCCCS(=O)(=O)c1cccc(OS(C)(=O)=O)n1 | 8 |
| CCC(C)S(=O)(=O)c1cccc(OS(C)(=O)=O)n1 (stereo not drawn) | 9 |
| CC(C)CCS(=O)(=O)c1cccc(OS(C)(=O)=O)n1 | 7.8 |
| CS(=O)(=O)Oc1cccc(S(=O)(=O)C2CCCC2)n1 | 9.11 |
| CCCS(=O)(=O)c1cccc(OS(C)(=O)=O)n1 | 8.08 |
| CC(C)S(=O)(=O)c1cccc(OS(C)(=O)=O)n1 | 8.3 |
| CS(=O)(=O)Oc1cccc(S(=O)(=O)c2ccccc2)n1 | 8 |

Test system: Nephotettix cincticeps
Test: Insecticidal activity against susceptible Nephotettix cincticeps Ageo (green rice leafhopper)assessed as mortality by foliar-spray
Format: functional

| SMILES | log(1/LD50) |
| --- | --- |
| CCC(C)Sc1cccc(OS(C)(=O)=O)n1 (stereo not drawn) | 8.24 |
| CCCC(C)Sc1cccc(OS(C)(=O)=O)n1 (stereo not drawn) | 7.65 |
| CS(=O)(=O)Oc1cccc(SCc2ccccc2)n1 | 7.91 |
| CCCSc1cccc(OS(C)(=O)=O)n1 | 8.57 |
| CC(C)(C)CSc1cccc(OS(C)(=O)=O)n1 | 8.26 |
| CC(C)Sc1cccc(OS(C)(=O)=O)n1 | 8.43 |
| CCSc1cccc(OS(C)(=O)=O)n1 | 8.14 |
| CC(C)CSc1cccc(OS(C)(=O)=O)n1 [6-(ISOBUTYLTHIO)PYRIDIN-2-YL METHANESULFONATE] | 8.16 |
| CS(=O)(=O)Oc1cccc(SCC2CC2)n1 | 8.64 |
| CC(C)CCSc1cccc(OS(C)(=O)=O)n1 | 7.24 |
| CS(=O)(=O)Oc1cccc(SC2CCCCC2)n1 | 7.69 |
| CSCCSc1cccc(OS(C)(=O)=O)n1 | 7.7 |
| CC(C)(C)Sc1cccc(OS(C)(=O)=O)n1 | 7.82 |
| CCCCCSc1cccc(OS(C)(=O)=O)n1 | 7.43 |
| CS(=O)(=O)Oc1cccc(SC2CCCC2)n1 | 8.39 |
| CSc1cccc(OS(C)(=O)=O)n1 | 6.71 |
| CCCCSc1cccc(OS(C)(=O)=O)n1 | 8.3 |
| CS(=O)(=O)Oc1cccc(Sc2ccccc2)n1 | 8.53 |
